Measured values from patent US20240199618A1, “NOVEL N-ACYL-[3-SUBSTITUTED]-[8-SUBSTITUTED]-5,6-DIHYDRO-[1,2,4]TRIAZOLO[4,3-a]PYRAZINES AS SELECTIVE NK-3 RECEPTOR ANTAGONISTS, PHARMACEUTICAL COMPOSITION, METHODS FOR USE IN NK-3 RECEPTOR-MEDIATED DISORDERS” (Ogeda SA, priority 2013, published 2024).
Read-outs that look alike come from different tables or passages of the source.

Columns and labels:
[1] = target: T1, human NK-3 receptor (Homo sapiens (Human), UniProt P29371); test: Aequorin functional assay with human NK-3 receptor (antagonist testing vs NKA); format: cell-based; details: CHO cells, NKA at EC80 (3 nM); read-out: Functional assay: Aequorin assay with human NK-3 receptor hNK-3-AEQ (antagonist IC50)
T1 sequence (P29371 whole entry): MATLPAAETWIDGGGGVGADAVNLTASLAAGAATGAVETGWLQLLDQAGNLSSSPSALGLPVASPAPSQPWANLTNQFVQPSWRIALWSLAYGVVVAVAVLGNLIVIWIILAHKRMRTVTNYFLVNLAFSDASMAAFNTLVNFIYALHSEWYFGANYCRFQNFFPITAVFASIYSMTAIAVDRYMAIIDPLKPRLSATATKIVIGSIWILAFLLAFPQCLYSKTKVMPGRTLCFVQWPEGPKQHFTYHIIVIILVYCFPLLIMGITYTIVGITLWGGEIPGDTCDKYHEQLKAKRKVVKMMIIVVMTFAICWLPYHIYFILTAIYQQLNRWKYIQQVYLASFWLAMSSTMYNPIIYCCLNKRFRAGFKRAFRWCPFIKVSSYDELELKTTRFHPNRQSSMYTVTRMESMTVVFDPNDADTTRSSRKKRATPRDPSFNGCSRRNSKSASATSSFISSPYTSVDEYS
Method in brief: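 CHO cells co-expressing human NK-3 receptor and apoaequorin were pre-incubated 3 min with compound, then challenged with NKA at EC80 (3 nM). Coelenterazine-dependent luminescence was integrated over 90 s, and antagonism was derived from concentration-dependent inhibition of the calcium response.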

[2] = target: T1, human NK-3 receptor; test: 3H-SB222200 binding competition assay with human NK-3 receptor
Method in brief: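 Membranes from CHO cells stably expressing the receptor were incubated with 5 nM 3H-SB222200 and varying compound concentrations in HEPES 25 mM/NaCl 0.1 M/CaCl2 1 mM/MgCl2 5 mM/BSA 0.5%/saponin 10 μg/ml, pH 7.4. Bound radioligand was quantified as membrane-associated radioactivity after filtration.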

[3] = target: human NK-1 receptor (Homo sapiens (Human), UniProt P25103); test: Selectivity assay: [3H] substance P binding, human NK-1 receptor; details: 2 nM [3H] substance P, CHO membranes; read-out: hNK-1 (Ki)
Chain of human NK-1 receptor (P25103 whole entry): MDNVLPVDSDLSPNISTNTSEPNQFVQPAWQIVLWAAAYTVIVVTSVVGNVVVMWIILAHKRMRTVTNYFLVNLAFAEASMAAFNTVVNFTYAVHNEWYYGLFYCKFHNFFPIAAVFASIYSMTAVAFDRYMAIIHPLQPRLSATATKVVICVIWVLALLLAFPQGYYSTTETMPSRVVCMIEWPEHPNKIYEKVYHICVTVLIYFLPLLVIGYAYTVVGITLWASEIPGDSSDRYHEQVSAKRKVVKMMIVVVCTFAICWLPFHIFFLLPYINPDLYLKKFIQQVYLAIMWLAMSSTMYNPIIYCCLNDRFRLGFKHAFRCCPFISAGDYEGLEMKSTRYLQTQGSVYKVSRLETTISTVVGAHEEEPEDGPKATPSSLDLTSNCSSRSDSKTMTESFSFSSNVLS
Method in brief: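 Competition binding on membranes from CHO cells expressing human NK-1 receptor, using 2 nM [3H] substance P in 50 mM Tris/5 mM MnCl2/150 mM NaCl/0.1% BSA, pH 7.4, with increasing compound concentrations. Incubated 60 min at 25 °C; bound radioactivity measured after filtration.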

[4] = system: plasma protein; test: Determination of plasma protein binding (equilibrium dialysis, RED); format: in vitro ADME; details: 4 hours at 37° C.
[5] = system: plasma testosterone; test: Plasma testosterone in gonad intact male rats; format: in vivo, rat; details: 3 mg/kg oral, vs vehicle, FIG. 1
Experimental: Effect of Compounds of the Invention on Plasma Testosterone in Gonad Intact Male Rats
The study was designed to evaluate the effect of compounds of the invention on testosterone circulating levels following oral administration at 3 mg/kg on SD gonad intact male rats.
Briefly the experimental methods used for this study were as follows:
Two groups of non-fasted rats (male, Sprague-Dawley, 200 to 225 g; n=4 rats/group) with jugular vein cannulation, were dosed via a single oral administration of compounds of the invention at 3 mg/kg. The control group was dosed with the vehicle. Compounds of the invention were prepared in a dose formulation of pyrogen-free water with 0.5% methylcellulose. Blood samples were collected via the catheter implanted in the jugular vein at pre-determined intervals using EDTA-3K as anti-coagulant. Samples were chilled and rapidly processed by centrifugation to obtain corresponding plasma samples. Testosterone hormone levels were determined by RIA performed on plasma samples collected for all the groups at 5 minutes before administration (basal time), and at 45, 90, 150, 300, 480 minutes and 24 hours after dosing.

[6] = system: plasma estradiol; test: Estradiol circulating level in female rats; format: in vivo, rat; details: 10 mg/kg b.i.d. oral, 10 days, FIG. 3
Experimental: Effect of compounds of the invention on Estradiol circulating level in female rats The aim of this study was to evaluate the effect of compounds of the invention on plasma estradiol levels following oral administration at 10 mg/kg (b.i.d.) for a period of 10 days in female rats.
Briefly the experimental methods used for this study were as follows: Two groups of adult, female rats (Sprague-Dawley, ˜320 g) were treated in-phase with their individual estrous cycles. Thus, treatment was started in the proestrus phase (coincident with peak estradiol levels, as shown on Day 1 in FIG. 3) and rats were dosed twice daily (˜9 h30 and 17 h30) by oral administration either with a compound of the invention at 10 mg/kg or with the vehicle for the control group. Compounds of the invention were prepared in a dose formulation of pyrogen-free water with 0.5% methylcellulose. Estradiol levels were determined for all groups by ELISA performed on plasma samples derived from blood collections taken at 30 minutes before the daily, 9 h30 test article administration on all days presented in FIG. 3.

IC50 [1]: 18 nM
Ki ([2]; Table 2, 5 nM 3H-SB222200, CHO membranes, read-out: Competitive binding assay with human NK-3 receptor hNK-3 (Ki)): 23 nM
Ki ([2]; Table 3 (selectivity table), read-out: hNK-3 (Ki)): 23 nM
Ki [3]: > 30000 nM
Exposure (% rPPB), bound drug fraction to plasma protein [4]: 22%
SMILES: Cc1nsc(-c2nnc3n2CCN(C(=O)c2ccc(F)cc2)[C@@H]3C)n1 [Compound 5, (R)-(4-fluorophenyl)(8-methyl-3-(3-methyl-1,2,4-thiadiazol-5-yl)-5,6-dihydro-[1,2,4]triazolo[4,3-a]pyrazin-7(8H)-yl)methanone]
plasma testosterone level [5]: significantly suppressed
estradiol levels [6]: significantly decreased
